From the NIST ThermoML archive (doi:10.1021/je060271a)
± gives the expanded uncertainty stated by the source.

Conditions: 323.16 K, Liquid, Vibrating tube method

CCCCCC(=O)OCC(COC(=O)CCCCC)(COC(=O)CCCCC)COC(=O)CCCCC [pentaerythritol tetrahexanoate]
Conditions	mass density [kg/m3]
24638 kPa	989 ± 1.2
24665 kPa	988.9 ± 1.2
24693 kPa	988.9 ± 1.2
24716 kPa	988.9 ± 1.2
24744 kPa	989 ± 1.2
24772 kPa	989 ± 1.2
24795 kPa	988.9 ± 1.2
24822 kPa	989 ± 1.2
24849 kPa	989 ± 1.2
24876 kPa	989.1 ± 1.2
24905 kPa	989 ± 1.2
24928 kPa	989.2 ± 1.2
24956 kPa	989.1 ± 1.2
24984 kPa	989.2 ± 1.2
25012 kPa	989.1 ± 1.2
25040 kPa	989.2 ± 1.2
25063 kPa	989.1 ± 1.2
25092 kPa	989.2 ± 1.2
25120 kPa	989.4 ± 1.2
25148 kPa	989.3 ± 1.2
25172 kPa	989.1 ± 1.2
25200 kPa	989.2 ± 1.2
25228 kPa	989.4 ± 1.2
25257 kPa	989.3 ± 1.2
25286 kPa	989.2 ± 1.2
25314 kPa	989.3 ± 1.2
25339 kPa	989.4 ± 1.2
25368 kPa	989.4 ± 1.2
25397 kPa	989.3 ± 1.2
25422 kPa	989.4 ± 1.2
25450 kPa	989.4 ± 1.2
25480 kPa	989.3 ± 1.2
25509 kPa	989.4 ± 1.2
26056 kPa	989.7 ± 1.2
26083 kPa	989.7 ± 1.2
26111 kPa	989.8 ± 1.2
26138 kPa	989.8 ± 1.2
26161 kPa	989.8 ± 1.2
26189 kPa	989.8 ± 1.2
26217 kPa	989.8 ± 1.2
26244 kPa	989.9 ± 1.2
26266 kPa	989.9 ± 1.2
26294 kPa	989.9 ± 1.2
26321 kPa	989.9 ± 1.2
26349 kPa	989.9 ± 1.2
26377 kPa	989.9 ± 1.2
26405 kPa	990 ± 1.2
26428 kPa	990 ± 1.2
26456 kPa	990 ± 1.2
26485 kPa	990 ± 1.2
26516 kPa	990 ± 1.2
26539 kPa	990.1 ± 1.2
26567 kPa	990.1 ± 1.2
26596 kPa	990.2 ± 1.2
26620 kPa	990.1 ± 1.2
26648 kPa	990.1 ± 1.2
26677 kPa	990.1 ± 1.2
26706 kPa	990.2 ± 1.2
26734 kPa	990.2 ± 1.2
27187 kPa	990.3 ± 1.2
27218 kPa	990.5 ± 1.2
27243 kPa	990.5 ± 1.2
27273 kPa	990.4 ± 1.2
27304 kPa	990.6 ± 1.2
27334 kPa	990.6 ± 1.2
27359 kPa	990.6 ± 1.2
27390 kPa	990.6 ± 1.2
27420 kPa	990.5 ± 1.2
27451 kPa	990.6 ± 1.2
27481 kPa	990.7 ± 1.2
27507 kPa	990.6 ± 1.2
27538 kPa	990.7 ± 1.2
27569 kPa	990.7 ± 1.2
27601 kPa	990.7 ± 1.2
27627 kPa	990.7 ± 1.2
27659 kPa	990.8 ± 1.2
27690 kPa	990.8 ± 1.2
27722 kPa	990.8 ± 1.2
27748 kPa	990.8 ± 1.2
27781 kPa	990.7 ± 1.2
27814 kPa	990.9 ± 1.2
27846 kPa	990.8 ± 1.2
27871 kPa	990.8 ± 1.2
27898 kPa	991 ± 1.2
27926 kPa	990.9 ± 1.2
27954 kPa	990.9 ± 1.2
27978 kPa	991 ± 1.2
28006 kPa	990.8 ± 1.2
28034 kPa	990.9 ± 1.2
28308 kPa	991.1 ± 1.2
28332 kPa	991.2 ± 1.2
28361 kPa	991.2 ± 1.2
28389 kPa	991.2 ± 1.2
28418 kPa	991.2 ± 1.2
28471 kPa	991.3 ± 1.2
28499 kPa	991.1 ± 1.2
28529 kPa	991.2 ± 1.2
28553 kPa	991.1 ± 1.2
28582 kPa	991.2 ± 1.2
28611 kPa	991.3 ± 1.2
28640 kPa	991.4 ± 1.2
29189 kPa	991.7 ± 1.2
29221 kPa	991.7 ± 1.2
29253 kPa	991.7 ± 1.2
29279 kPa	991.7 ± 1.2
29311 kPa	991.8 ± 1.2
29343 kPa	991.8 ± 1.2
29373 kPa	991.8 ± 1.2
29395 kPa	991.8 ± 1.2
29423 kPa	991.8 ± 1.2
29446 kPa	991.7 ± 1.2
29473 kPa	991.8 ± 1.2
29500 kPa	991.8 ± 1.2
29527 kPa	991.9 ± 1.2
29603 kPa	991.9 ± 1.2
29630 kPa	991.8 ± 1.2
29657 kPa	992.1 ± 1.2
29680 kPa	992 ± 1.2
29707 kPa	992 ± 1.2
29734 kPa	992 ± 1.2
29999 kPa	992.1 ± 1.2
30027 kPa	992.1 ± 1.2
30055 kPa	992.3 ± 1.2
30079 kPa	992.1 ± 1.2
30107 kPa	992.1 ± 1.2
30135 kPa	992.2 ± 1.2
30159 kPa	992.4 ± 1.2
30188 kPa	992.3 ± 1.2
30217 kPa	992.3 ± 1.2
30245 kPa	992.2 ± 1.2
30273 kPa	992.4 ± 1.2
30301 kPa	992.4 ± 1.2
30326 kPa	992.2 ± 1.2
30354 kPa	992.4 ± 1.2
30383 kPa	992.3 ± 1.2
30407 kPa	992.4 ± 1.2
30436 kPa	992.4 ± 1.2
30579 kPa	992.4 ± 1.2
30610 kPa	992.4 ± 1.2
30641 kPa	992.5 ± 1.2
30672 kPa	992.6 ± 1.2
30697 kPa	992.5 ± 1.2
30725 kPa	992.6 ± 1.2
30749 kPa	992.7 ± 1.2
30774 kPa	992.6 ± 1.2
